The source of these data is PubChem BioAssay (NCI).

Some test systems named below: 786-0 renal; CAKI-1 renal; HL-60(TB) leukemia; KM12 colon; OVCAR-5 ovarian; SK-MEL-5 melanoma; UACC-257 melanoma; NCI/ADR-RES ovarian; BT-549 breast; NCI-H522 lung.
Holding throughout (test): NCI-60 cell line screen, 48 h

Where “and” joins values, the source holds several entries; their conditions need not be identical. Equal entries are not always repeated.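 How tested: cells in 96-well plates exposed to compound for 48 hours at five concentrations. GI50: concentration for 50% inhibition of growth. At the TGI there is no net growth.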 Where a SMILES comes first, the peptide text is derived from it. The star is where a group is joined. Cbz = O=C(OCc1ccccc1)*; OBn = c1ccc(CO*)cc1 Bounds are passed on as bounds.

For the molecule `COc1cccc(/C=N/[N-]C(N)=O)c1[O-].[Ni+2].[OH3+].c1cnc2c(c1)ccc1cccnc12`, the TGI with 786-0 renal, with CAKI-1 renal, in the assay with HL-60(TB) leukemia, in the assay on KM12 colon, in the assay on OVCAR-5 ovarian and in the assay with SK-MEL-5 melanoma was over 100 µM throughout. In the assay on UACC-257 melanoma, the TGI is over 100 µM. Besides, in the assay with HL-60(TB) leukemia, the GI50 is 69.5 µM.

`Oc1[nH]c2ccccc2c1N=Nc1nc(-c2ccc(Cl)c(Cl)c2)cs1`: the TGI is over 100 µM in the assay on 786-0 renal; over 100 µM in the assay with CAKI-1 renal; 0.718 µM in the assay with HL-60(TB) leukemia; over 100 µM in the assay with KM12 colon; over 100 µM with NCI/ADR-RES ovarian; over 100 µM in the assay on OVCAR-5 ovarian. In addition, the TGI in the assay on SK-MEL-5 melanoma and in the assay with UACC-257 melanoma was over 100 µM throughout.

For the molecule `COC(=O)C(Cc1ccc(O)cc1)NC(=O)C(CC(=O)OCc1ccccc1)NC(=O)OCc1ccccc1` (stereo not given) (Cbz-Asp(OBn)-Tyr-OMe; configuration not given here), the TGI in the assay with 786-0 renal came out at 32.1 µM; in the assay on BT-549 breast, 37.4 µM; in the assay on HL-60(TB) leukemia it was 52.7 µM; in the assay on KM12 colon, 39.5 µM; with OVCAR-5 ovarian, 43.2 µM; in the assay with SK-MEL-5 melanoma, 34.1 µM. Moreover, the TGI with UACC-257 melanoma was determined as 45.5 µM.

Regarding `CN(C)CCSC(=Nc1ccccc1)N1CCCCC1`, the TGI is 30 µM with 786-0 renal; over 100 µM in the assay on CAKI-1 renal; 49.5 µM in the assay on HL-60(TB) leukemia; 31 µM in the assay on KM12 colon; 29 µM in the assay with NCI-H522 lung; 35.3 µM in the assay with OVCAR-5 ovarian. In addition, the TGI in the assay on SK-MEL-5 melanoma stood at 29.8 µM; in the assay with UACC-257 melanoma, 29.6 µM.

Take `CCCCCCCCCCCCCCCCCCNc1ccn(C2OC(COP(=O)(O)OCC3OC(n4cc(C)c(=O)[nH]c4=O)CC3N=[N+]=[N-])C(O)C2O)c(=O)n1` (stereo not given): the TGI in the assay on 786-0 renal was over 100 µM; in the assay on BT-549 breast it was 49.2 µM; in the assay with CAKI-1 renal, 58.6 µM; in the assay on KM12 colon it was 35 µM; in the assay with NCI-H522 lung it was 30.7 µM; with NCI/ADR-RES ovarian it was 50 µM. Further, the TGI with OVCAR-5 ovarian was 34.2 µM; with SK-MEL-5 melanoma it was 57.2 µM; with UACC-257 melanoma it was 76.3 µM.

For the molecule `Cc1ccc(C(C2C(=O)N(C)C(=O)N(C)C2=O)C(F)(F)C(=O)N(C)C)cc1` (stereo not given), the TGI in the assay with 786-0 renal, with BT-549 breast, in the assay with CAKI-1 renal, in the assay on KM12 colon, in the assay on NCI/ADR-RES ovarian and with OVCAR-5 ovarian was over 100 µM each time. Also, the TGI in the assay with SK-MEL-5 melanoma and in the assay on UACC-257 melanoma was over 100 µM each time.

As for `NCCNc1cccc2ccccc12`, the TGI with 786-0 renal, in the assay with CAKI-1 renal, with HL-60(TB) leukemia, with KM12 colon, in the assay with NCI-H522 lung and with OVCAR-5 ovarian was over 100 µM each time. The TGI with UACC-257 melanoma is over 100 µM.

With `O=C1C(Br)=CC2(C=C1Br)CCNC1=C2C(=O)c2cccnc2C1=O`, the TGI in the assay on 786-0 renal is 29.3 µM; in the assay on CAKI-1 renal, 32.3 µM; in the assay with HL-60(TB) leukemia it was 15.8 µM; with KM12 colon, 35.8 µM; in the assay on NCI-H522 lung it was 13.9 µM; in the assay with NCI/ADR-RES ovarian, 49.1 µM. Also, the TGI was 33.1 µM with OVCAR-5 ovarian, 12.8 µM with SK-MEL-5 melanoma and 21.3 µM with UACC-257 melanoma.

In the case of `COC(=O)c1cc(C#N)[nH]c1-c1ccc(C)s1`, the TGI in the assay with 786-0 renal is over 100 µM; with BT-549 breast it was over 100 µM; with CAKI-1 renal, over 100 µM; with KM12 colon, over 100 µM; in the assay with NCI-H522 lung, 89.7 µM; in the assay on NCI/ADR-RES ovarian, over 100 µM. In addition, the TGI in the assay with OVCAR-5 ovarian and in the assay with UACC-257 melanoma was over 100 µM throughout.

Consider `Cc1cn(CC2=NCC(C)(C)N2)c(=O)[nH]c1=O`, for which the TGI in the assay on 786-0 renal, in the assay with BT-549 breast, in the assay with NCI-H522 lung, in the assay with NCI/ADR-RES ovarian, in the assay with OVCAR-5 ovarian and with SK-MEL-5 melanoma was over 100 µM throughout. This molecule came in with a TGI in the assay on UACC-257 melanoma of over 100 µM.

For `c1ccc2c(c1)CCc1cc3cc4c(nc3nc1-2)-c1ccccc1CC4`, the TGI in the assay with 786-0 renal, in the assay on HL-60(TB) leukemia, in the assay with KM12 colon, in the assay on NCI-H522 lung and with UACC-257 melanoma was over 100 µM each time.

On to `COc1cccc(N(CN2CC=CC2=O)C(C)=O)c1`, for which the TGI with 786-0 renal, with CAKI-1 renal, in the assay with HL-60(TB) leukemia, with KM12 colon, in the assay with NCI-H522 lung and in the assay on NCI/ADR-RES ovarian was over 100 µM each time. In addition, the TGI in the assay with OVCAR-5 ovarian, in the assay with SK-MEL-5 melanoma and with UACC-257 melanoma was over 100 µM each time.

As to `N#C[S-].[Nd+3].c1ccc(-c2ccccn2)nc1.c1ccc(-c2ccccn2)nc1.c1ccc(-c2ccccn2)nc1`, the GI50 was 5.9 µM in the assay on CAKI-1 renal, 5.62 µM in the assay with KM12 colon, 1.53 µM in the assay on SK-MEL-5 melanoma and 13.5 µM in the assay on UACC-257 melanoma. Besides, the TGI in the assay with CAKI-1 renal was over 100 µM; in the assay on KM12 colon, over 100 µM; with SK-MEL-5 melanoma, 4.77 µM; with UACC-257 melanoma, 61.2 µM.

Take `O=c1[nH]c(=O)n(Cc2ccccc2CO)cc1Sc1ccccc1`: the TGI was over 100 µM with 786-0 renal; 27.2 µM in the assay with CAKI-1 renal; over 100 µM in the assay with HL-60(TB) leukemia; over 100 µM in the assay with KM12 colon; 3.81 µM with NCI-H522 lung; 81 µM in the assay with NCI/ADR-RES ovarian. For the same molecule, the TGI with OVCAR-5 ovarian was over 100 µM; with SK-MEL-5 melanoma, 26.7 µM; with UACC-257 melanoma, 72.4 µM.

Consider `Fc1ccc(N=NN2CCCC2)cc1`, for which the TGI with 786-0 renal, with BT-549 breast, with CAKI-1 renal, in the assay on HL-60(TB) leukemia, in the assay with KM12 colon and in the assay with NCI-H522 lung was over 100 µM throughout. For the same molecule, the TGI in the assay on OVCAR-5 ovarian, in the assay with SK-MEL-5 melanoma and in the assay on UACC-257 melanoma was over 100 µM in each case.

For `NC(=O)C#CC(N)=O`, the TGI in the assay on 786-0 renal is over 58 µM; in the assay on CAKI-1 renal, 10.3 µM and 24.2 µM and 33.8 µM; with HL-60(TB) leukemia, 4.29 µM and 4.03 µM and 6.3 µM; with KM12 colon, 164 µM and 161 µM and > 100 µM; with NCI-H522 lung, 46.5 µM and 27.7 µM and 55.2 µM; in the assay on NCI/ADR-RES ovarian, 25.9 µM and 18 µM. In addition, the TGI in the assay with OVCAR-5 ovarian was 38.4 µM and 47.9 µM and > 90.8 µM; with SK-MEL-5 melanoma, 28.2 µM and > 100 µM; in the assay with UACC-257 melanoma, 14.2 µM and 19.5 µM. Also, the GI50 is 2.81 µM and 12.5 µM and 18.2 µM with CAKI-1 renal; 1.95 µM in the assay with HL-60(TB) leukemia; 38.9 µM and 54.1 µM and > 100 µM in the assay with KM12 colon; 8.22 µM with NCI/ADR-RES ovarian; 20.9 µM and > 54 µM with OVCAR-5 ovarian; 15 µM and 54.6 µM in the assay with SK-MEL-5 melanoma. For the same molecule, the GI50 with UACC-257 melanoma is 4.46 µM and 13.6 µM.
